{"source": "ChEMBL document CHEMBL1201862", "about": "“PubChem BioAssay data set” (2004)", "key": {"[1]": {"target": "T1, Corticotropin-releasing factor receptor 2/Corticotropin-releasing factor-binding protein (Homo sapiens, UniProt P24387+Q13324)", "T1 sequence (Q13324 whole entry)": "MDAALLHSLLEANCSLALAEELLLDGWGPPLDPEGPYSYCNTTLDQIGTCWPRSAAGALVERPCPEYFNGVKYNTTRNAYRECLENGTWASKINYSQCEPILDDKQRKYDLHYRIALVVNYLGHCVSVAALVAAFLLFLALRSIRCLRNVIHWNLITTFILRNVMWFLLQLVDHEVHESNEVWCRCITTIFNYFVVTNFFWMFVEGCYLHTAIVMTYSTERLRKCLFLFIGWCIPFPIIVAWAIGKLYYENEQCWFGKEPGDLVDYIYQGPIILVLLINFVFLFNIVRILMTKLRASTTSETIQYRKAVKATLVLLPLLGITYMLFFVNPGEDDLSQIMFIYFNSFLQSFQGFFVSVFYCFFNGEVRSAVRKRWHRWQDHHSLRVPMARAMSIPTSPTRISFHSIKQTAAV", "T1 sequence (P24387 whole entry)": "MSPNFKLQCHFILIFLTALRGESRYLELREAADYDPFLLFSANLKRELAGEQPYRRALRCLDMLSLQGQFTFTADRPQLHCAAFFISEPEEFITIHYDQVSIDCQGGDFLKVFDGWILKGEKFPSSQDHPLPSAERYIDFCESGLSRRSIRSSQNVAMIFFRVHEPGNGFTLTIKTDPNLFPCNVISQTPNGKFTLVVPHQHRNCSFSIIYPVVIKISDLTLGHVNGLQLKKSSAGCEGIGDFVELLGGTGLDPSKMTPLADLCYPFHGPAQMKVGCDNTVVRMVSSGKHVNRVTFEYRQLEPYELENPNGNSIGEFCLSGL", "test": "Dose Response confirmation of uHTS hits for small molecule antagonists of the CRF-binding protein and CRF-R2 receptor complex.", "format": "functional", "details": "read-out: IC50_Mean"}, "[2]": {"test": "blockers of CRF-binding protein–CRF-R2 complex – cell-based, uHTS hits, 384-well, dose response (AID 651639)", "format": "functional, Homo sapiens", "details": "read-out: IC50_Mean"}, "[3]": {"target": "T1, Corticotropin-releasing factor receptor 2/Corticotropin-releasing factor-binding protein", "test": "activators of CRF receptor 2 with binding protein – uHTS hits, confirmation (AID 602473)", "format": "functional", "details": "read-out: EC50_Mean"}, "[4]": {"target": "T2, Probable nicotinate-nucleotide adenylyltransferase (Staphylococcus aureus (strain N315), UniProt P65502)", "T2 sequence (P65502 whole entry)": "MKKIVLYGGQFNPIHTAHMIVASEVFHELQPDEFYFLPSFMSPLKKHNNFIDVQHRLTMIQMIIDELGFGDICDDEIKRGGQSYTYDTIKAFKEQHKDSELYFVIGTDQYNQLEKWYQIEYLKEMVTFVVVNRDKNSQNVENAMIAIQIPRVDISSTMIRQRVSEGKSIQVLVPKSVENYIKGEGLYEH", "format": "functional, Staphylococcus aureus subsp. aureus N315", "details": "read-out: IC50_Mean"}, "[5]": {"system": "Streptococcus sp. 'group A'", "test": "Streptococcus pyogenes SK(-)GAS viability under kanamycin – luminescence, BacTiterGlo, confirmation, counter-screen for streptokinase expression inhibitor project, dose response (AID 1900)", "format": "functional, organism-based"}, "[6]": {"target": "T2, Probable nicotinate-nucleotide adenylyltransferase", "format": "functional, Staphylococcus aureus subsp. aureus N315"}, "Streptococcus": {"system": "Streptococcus", "test": "GAS UMAA2166 growth inhibition – luminescence, BacTiterGlo, counter-screen for streptokinase expression inhibitor project, dose response (AID 1915);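 further: potency for reduction of bacterial viability or growth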", "format": "functional, organism-based"}, "[7]": {"target": "T3, Sentrin-specific protease 8 (Homo sapiens, UniProt Q96LD8)", "T3 sequence (Q96LD8 whole entry)": "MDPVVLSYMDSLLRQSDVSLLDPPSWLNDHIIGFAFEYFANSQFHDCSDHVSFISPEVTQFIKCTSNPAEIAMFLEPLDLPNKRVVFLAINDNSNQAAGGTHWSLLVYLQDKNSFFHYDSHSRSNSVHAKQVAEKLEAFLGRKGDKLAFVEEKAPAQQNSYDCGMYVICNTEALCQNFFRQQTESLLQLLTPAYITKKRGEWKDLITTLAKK", "format": "functional"}, "Caspase-3": {"target": "T4, Caspase-3 (Homo sapiens, UniProt P42574)", "T4 sequence (P42574 whole entry)": "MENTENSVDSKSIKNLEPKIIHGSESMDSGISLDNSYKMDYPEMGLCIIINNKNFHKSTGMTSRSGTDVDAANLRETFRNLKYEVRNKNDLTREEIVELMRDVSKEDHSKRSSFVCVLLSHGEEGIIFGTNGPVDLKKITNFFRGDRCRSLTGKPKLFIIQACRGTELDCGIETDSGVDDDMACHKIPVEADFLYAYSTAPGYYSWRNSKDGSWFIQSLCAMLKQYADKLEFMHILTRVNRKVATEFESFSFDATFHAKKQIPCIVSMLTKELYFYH", "format": "functional"}, "[8]": {"target": "T5, Sentrin-specific protease 6 (Homo sapiens, UniProt Q9GZR1)", "T5 sequence (Q9GZR1 whole entry)": "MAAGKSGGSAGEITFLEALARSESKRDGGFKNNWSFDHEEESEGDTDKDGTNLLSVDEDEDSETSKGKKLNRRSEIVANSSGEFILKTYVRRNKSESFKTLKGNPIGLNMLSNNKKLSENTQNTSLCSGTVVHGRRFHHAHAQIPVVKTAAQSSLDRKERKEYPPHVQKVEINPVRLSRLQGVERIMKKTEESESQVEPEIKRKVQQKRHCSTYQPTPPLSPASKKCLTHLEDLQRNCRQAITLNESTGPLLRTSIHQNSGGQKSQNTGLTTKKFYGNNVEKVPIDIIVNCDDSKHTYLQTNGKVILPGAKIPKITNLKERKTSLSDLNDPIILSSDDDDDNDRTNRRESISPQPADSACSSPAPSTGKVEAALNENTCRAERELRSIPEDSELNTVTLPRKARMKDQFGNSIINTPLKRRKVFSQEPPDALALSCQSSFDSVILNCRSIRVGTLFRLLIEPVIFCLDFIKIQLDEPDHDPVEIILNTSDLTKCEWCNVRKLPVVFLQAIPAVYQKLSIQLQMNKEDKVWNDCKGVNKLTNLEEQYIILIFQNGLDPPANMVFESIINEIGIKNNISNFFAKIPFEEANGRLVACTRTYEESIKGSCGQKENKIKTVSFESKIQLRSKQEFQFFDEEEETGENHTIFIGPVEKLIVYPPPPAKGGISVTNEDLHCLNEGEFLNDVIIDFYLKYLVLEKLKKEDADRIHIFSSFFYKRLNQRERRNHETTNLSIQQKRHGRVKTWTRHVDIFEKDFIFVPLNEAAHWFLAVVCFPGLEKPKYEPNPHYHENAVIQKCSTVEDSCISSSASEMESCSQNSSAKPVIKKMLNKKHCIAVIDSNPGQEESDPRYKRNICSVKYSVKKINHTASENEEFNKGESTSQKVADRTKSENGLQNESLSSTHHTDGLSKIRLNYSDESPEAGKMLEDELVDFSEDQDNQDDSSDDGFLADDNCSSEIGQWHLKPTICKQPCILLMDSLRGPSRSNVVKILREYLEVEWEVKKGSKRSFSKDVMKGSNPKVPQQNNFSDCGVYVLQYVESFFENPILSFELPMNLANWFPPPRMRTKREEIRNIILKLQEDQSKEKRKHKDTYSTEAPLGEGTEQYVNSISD", "format": "functional"}, "[9]": {"target": "T6, Sentrin-specific protease 7 (Homo sapiens, UniProt Q9BQF6)", "T6 sequence (Q9BQF6 whole entry)": "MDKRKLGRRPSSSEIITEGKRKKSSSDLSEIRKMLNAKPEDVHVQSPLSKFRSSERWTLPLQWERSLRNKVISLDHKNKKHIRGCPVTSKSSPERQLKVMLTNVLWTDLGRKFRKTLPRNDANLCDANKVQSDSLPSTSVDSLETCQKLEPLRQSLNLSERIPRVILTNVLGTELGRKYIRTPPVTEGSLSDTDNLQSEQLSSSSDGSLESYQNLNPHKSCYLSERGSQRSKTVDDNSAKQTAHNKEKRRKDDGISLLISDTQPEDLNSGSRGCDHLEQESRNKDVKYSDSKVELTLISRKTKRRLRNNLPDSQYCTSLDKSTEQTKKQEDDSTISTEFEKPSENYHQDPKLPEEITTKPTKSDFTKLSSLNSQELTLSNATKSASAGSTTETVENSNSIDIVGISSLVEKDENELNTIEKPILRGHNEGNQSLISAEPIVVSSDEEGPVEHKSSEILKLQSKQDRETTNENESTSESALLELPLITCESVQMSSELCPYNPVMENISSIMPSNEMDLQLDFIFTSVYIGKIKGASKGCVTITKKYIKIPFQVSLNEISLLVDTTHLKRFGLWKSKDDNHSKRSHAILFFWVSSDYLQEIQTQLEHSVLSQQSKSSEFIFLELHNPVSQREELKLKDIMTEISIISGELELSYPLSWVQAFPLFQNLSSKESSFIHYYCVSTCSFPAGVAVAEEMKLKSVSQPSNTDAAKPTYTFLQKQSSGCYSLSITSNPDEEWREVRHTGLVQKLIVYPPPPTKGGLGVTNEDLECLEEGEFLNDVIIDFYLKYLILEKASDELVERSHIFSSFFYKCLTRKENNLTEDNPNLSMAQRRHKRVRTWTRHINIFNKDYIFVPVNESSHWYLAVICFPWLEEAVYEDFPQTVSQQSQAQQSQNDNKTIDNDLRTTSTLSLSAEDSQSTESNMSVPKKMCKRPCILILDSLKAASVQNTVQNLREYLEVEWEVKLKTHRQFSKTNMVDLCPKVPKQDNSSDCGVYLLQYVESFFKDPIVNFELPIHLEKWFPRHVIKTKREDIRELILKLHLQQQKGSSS", "format": "functional"}}, "note": "Activity calls are given as the source filed them.", "data": [{"compound": "O=C(CCCCn1c(=O)c2ccccc2n(Cc2ccc(F)cc2Cl)c1=O)NCc1ccco1", "values": [{"measurement": "IC50", "setting": "[1]", "result": "19.4 µM (active)"}, {"measurement": "IC50", "setting": "[2]", "result": "> 20 µM (inactive)"}, {"measurement": "EC50", "setting": "[3]", "result": "> 53 µM (inactive)"}]}, {"compound": "O=S(=O)(Nc1nccs1)c1ccc(Nc2nnc(-c3ccccc3)c3ccccc23)cc1", "values": [{"measurement": "IC50", "setting": "[4]", "result": "29.2 µM (active)"}, {"measurement": "EC50", "setting": "[5]", "result": "1.06 µM (active)"}, {"measurement": "IC50", "setting": "[6]", "result": "5.9 µM (active)"}, {"measurement": "EC50", "setting": "Streptococcus", "result": "3.67 µM (active)"}]}, {"compound": "COC(=O)c1sc(-c2ccc(Cl)cc2)cc1N", "values": [{"measurement": "IC50", "setting": "[7]", "result": "67.1 µM (active)"}, {"measurement": "IC50", "setting": "Caspase-3", "result": "17.7 µM (active)"}, {"measurement": "IC50", "setting": "[8]", "result": "4.35 µM (active)"}, {"measurement": "IC50", "setting": "[9]", "result": "2.96 µM (active)"}]}, {"compound": "Cc1ccc(NC(=O)c2ccccc2NS(=O)(=O)c2ccc(F)cc2)cc1S(=O)(=O)N1CCCCC1", "values": [{"measurement": "IC50", "setting": "[1]", "result": "2.59 µM (active)"}, {"measurement": "IC50", "setting": "[2]", "result": "6.13 µM (active)"}, {"measurement": "EC50", "setting": "[3]", "result": "4.33 µM (active)"}]}]}
